Test results: ChEMBL document CHEMBL4680158, “C6-O-alkylated 7-deazainosine nucleoside analogues: Discovery of potent and selective anti-sleeping sickness agents” (Eur J Med Chem, 2020)

Assays:
[1] = system: Trypanosoma brucei rhodesiense; assay: Antitrypanosomal activity against Trypanosoma brucei rhodesiense assessed as reduction in parasite growth incubated for 3 days by resazurin dye based fluorescence assay; type: functional, organism-based; conditions: 72 h
[2] = Selectivity index, ratio of EC50 for cytotoxicity against human MRC5 cells to EC50 for antitrypanosomal activity against Trypanosoma brucei rhodesiense; type: toxicity, cell-based; conditions: read-out: Ratio EC50
MRC5 = assay: Cytotoxicity against human MRC5 cells assessed as reduction in cell viability incubated for 3 days by resazurin dye based fluorescence assay; conditions: MRC5, 72 h
[3] = system: Trypanosoma brucei brucei; assay: Antitrypanosomal activity against Trypanosoma brucei brucei assessed as reduction in parasite growth incubated for 3 days by resazurin dye based fluorescence assay; type: functional, organism-based; conditions: 72 h
[4] = Selectivity index, ratio of EC50 for cytotoxicity against human MRC5 cells to EC50 for antitrypanosomal activity against Trypanosoma brucei brucei; type: toxicity, cell-based; conditions: read-out: Ratio EC50

| Compound | EC50 [1] [nM] | selectivity ratio [2] | EC50 (MRC5) [µM] | EC50 [3] [nM] | selectivity ratio [4] |
| --- | --- | --- | --- | --- | --- |
| Cc1nc2c(ccn2[C@@H]2O[C@H](CO)[C@@H](O)[C@H]2O)c(=O)[nH]1 | 4700 | > 13 | > 64 | > 64000 |  |
| O=c1[nH]cnc2c1c(Br)cn2[C@@H]1O[C@H](CO)[C@@H](O)[C@H]1O | 29200 | 22 | > 64 | 52400 | > 1.2 |
| COc1ncnc2c1c(Br)cn2[C@@H]1O[C@H](CO)C[C@H]1O | 3700 | 0.7 | 2.7 | 2600 | 1 |
| OC[C@H]1O[C@@H](n2cc(Cl)c3c(OCCc4ccccc4)ncnc32)[C@H](O)[C@@H]1O | 30 | 10.3 | 0.31 | 95 | 3.3 |
| CC(C)COc1ncnc2c1c(Cl)cn2[C@@H]1O[C@H](CO)[C@@H](O)[C@H]1O | 30 | 1670 | 49.5 | 71 | 694 |
| O=c1[nH]cnc2c1ccn2[C@@H]1O[C@H](CO)[C@@H](O)[C@H]1O [IMMUNICILLIN H] | 19100 | 1.6 | 31.3 | 4200 | 7.4 |
| Nc1nc(Cl)c2c(Br)cn([C@@H]3O[C@H](CO)[C@@H](O)[C@H]3O)c2n1 | 47 | 847 | 40.2 | 130 | 316 |
| Nc1nc(Cl)c2ccn([C@@H]3O[C@H](CO)[C@@H](O)[C@H]3O)c2n1 | 180 | > 347 | > 64 | 490 | > 131 |
| O=c1[nH]cnc2c1c(-c1ccccc1)cn2[C@@H]1O[C@H](CO)[C@@H](O)[C@H]1O | 9400 | > 6.8 | > 64 | 32200 | > 2 |
| OC[C@H]1O[C@@H](n2cc(C(F)(F)F)c3c(O)ncnc32)[C@H](O)[C@@H]1O | 10900 | 0.3 | 3.28 | > 64000 | 0.1 |
| O=c1[nH]cnc2c1c(Cl)cn2[C@@H]1O[C@H](CO)[C@@H](O)[C@H]1O | 25100 | > 2.5 | > 64 | 10700 | > 6 |
| O=c1[nH]cnc2c1c(Br)cn2[C@@H]1O[C@H](CO)C[C@H]1O | 23000 | > 28 | > 64 | 8100 | > 7 |
| Nc1ncc2ccn([C@@H]3O[C@H](CO)[C@@H](O)[C@H]3O)c2n1 | > 64000 |  | > 64 | > 64000 |  |
| COc1ncnc2c1c(-c1ccccc1)cn2[C@@H]1O[C@H](CO)[C@@H](O)[C@H]1O | > 64000 |  | > 64 | > 64000 |  |
| O=c1[nH]cnc2c1ccn2[C@@H]1O[C@H](CO)C[C@H]1O | 2900 | > 22 | > 64 | 29600 | > 2 |
| CC(C)CCOc1ncnc2c1c(Cl)cn2[C@@H]1O[C@H](CO)[C@@H](O)[C@H]1O | 29 | > 2200 | > 64 | 58 | > 1100 |
| COc1ncnc2c1c(I)cn2[C@@H]1O[C@H](CO)[C@@H](O)[C@H]1O | 53 | 708 | 38.4 | 220 | 168 |

| Compound | EC50 [1] [nM] | selectivity ratio [2] | EC50 (MRC5) [µM] | EC50 [3] [nM] | selectivity ratio [4] |
| --- | --- | --- | --- | --- | --- |
| COc1ncnc2c1c(-c1ccc(Cl)cc1)cn2[C@@H]1O[C@H](CO)[C@@H](O)[C@H]1O | 22300 | 2.7 | 61.1 | > 64000 |  |
| Cc1ccc(C(=O)Nc2ccc(S(=O)(=O)O)c3cc(S(=O)(=O)O)cc(S(=O)(=O)O)c23)cc1NC(=O)c1cccc(NC(=O)Nc2cccc(C(=O)Nc3cc(C(=O)Nc4ccc(S(=O)(=O)O)c5cc(S(=O)(=O)O)cc(S(=O)(=O)O)c45)ccc3C)c2)c1 [SURAMIN] | 33 |  |  | 28 |  |
| Nc1nc(O)c2ccn([C@@H]3O[C@H](CO)C[C@H]3O)c2n1 | > 64000 |  | > 64 | > 64000 |  |
| Nc1nc2c(ccn2[C@@H]2O[C@H](CO)[C@@H](O)[C@H]2O)c(=O)[nH]1 | 12900 | > 5 | > 64 | > 64000 |  |
| COc1nc(N)nc2c1c(Br)cn2[C@@H]1O[C@H](CO)[C@@H](O)[C@H]1O | 77 | 42 | 3.24 | 130 | 24 |
| COCCOc1ncnc2c1c(Cl)cn2[C@@H]1O[C@H](CO)[C@@H](O)[C@H]1O | 220 | 18.8 | 4.13 | 170 | 25 |
| OC[C@H]1O[C@@H](n2cc(Cl)c3c(OC4CCCC4)ncnc32)[C@H](O)[C@@H]1O | 120 | 326 | 38.1 | 200 | 191 |
| O=c1[nH]cnc2c1c(F)cn2[C@@H]1O[C@H](CO)[C@@H](O)[C@H]1O | 1060 | 1.9 | 2.03 | 100 | 21 |
| CCCOc1ncnc2c1c(Cl)cn2[C@@H]1O[C@H](CO)[C@@H](O)[C@H]1O | 76 | 37 | 2.81 | 81 | 34 |
| Nc1nc2c(c(Br)cn2[C@@H]2O[C@H](CO)[C@@H](O)[C@H]2O)c(=O)[nH]1 | 490 | > 130 | > 64 | 2010 | > 31 |
| O=c1[nH]cnc2c1ncn2[C@@H]1O[C@H](CO)C[C@H]1O | 6700 |  | > 64 | 1100 |  |
| COc1ncnc2c1ccn2[C@@H]1O[C@H](CO)C[C@H]1O | > 64000 |  | > 64 | > 64000 |  |
| CCCCOc1ncnc2c1c(Cl)cn2[C@@H]1O[C@H](CO)[C@@H](O)[C@H]1O | 36 | 37 | 1.32 | 69 | 19 |
| CCCCCOc1ncnc2c1c(Cl)cn2[C@@H]1O[C@H](CO)[C@@H](O)[C@H]1O | 32 | 3.2 | 0.1 | 88 | 1.1 |
| O=c1[nH]cnc2c1c(I)cn2[C@@H]1O[C@H](CO)[C@@H](O)[C@H]1O | 23900 | > 2.7 | > 64 | 57300 | > 1.1 |
| OC[C@H]1O[C@@H](n2cc(Cl)c3c(OC4CCCCC4)ncnc32)[C@H](O)[C@@H]1O | 380 | > 168 | > 64 | 400 | > 161 |
| OC[C@H]1O[C@@H](n2cc(Cl)c3c(OCCOc4ccccc4)ncnc32)[C@H](O)[C@@H]1O | 160 | 263 | 43.2 | 130 | 329 |
